Among the test systems are HCT-15 colon; T-47D breast; NCI/ADR-RES ovarian; MDA-MB-231 breast; BT-549 breast.
Holding throughout (assay): inhibition of tumour cell growth, NCI panel, 48 h

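96-well plates; 48 h exposure; 5 concentrations. Endpoints by linear interpolation between flanking doses. Not reached: highest tested concentration assigned. GI50: concentration for 50% inhibition of growth. TGI: concentration producing complete growth inhibition.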

The source of these data is PubChem BioAssay (NCI).

For the compound `CCOc1nc(-c2ccccc2)cc2c(O)c(-c3nnco3)[nH]c(=O)c12`, the GI50 with HCT-15 colon is 3.66 µM; in the assay on T-47D breast it was 0.251 µM; in the assay on NCI/ADR-RES ovarian it was 3.4 µM; in the assay on MDA-MB-231 breast, 1.66 µM; in the assay with BT-549 breast, 3.23 µM. Moreover, the TGI with HCT-15 colon is over 100 µM; in the assay on T-47D breast, 9.93 µM; in the assay on NCI/ADR-RES ovarian, over 100 µM; in the assay with MDA-MB-231 breast, over 29.8 µM; with BT-549 breast, over 100 µM.

As to `C[C@H]1c2cccc(O)c2C(O)=C2C(=O)[C@]3(O)C(O)=C(C(N)=O)C(=O)[C@@H](N(C)C)[C@@H]3[C@@H](O)[C@@H]21`, the GI50 with HCT-15 colon is 3.46 µM; in the assay with T-47D breast, 3.28 µM; in the assay on NCI/ADR-RES ovarian, 6.18 µM; in the assay on MDA-MB-231 breast, 3.39 µM; in the assay on BT-549 breast it was 3.12 µM. In addition, the TGI in the assay with HCT-15 colon was determined as 16 µM; with T-47D breast, 34.8 µM; in the assay with NCI/ADR-RES ovarian, 85.3 µM; in the assay on MDA-MB-231 breast it was 13.5 µM; with BT-549 breast it was 9.88 µM.

With `COc1ccc(N2C(=O)C(c3ccccc3)(c3ccccc3)C23C(=O)N(C)c2ccccc23)cc1` (stereo not given), the GI50 in the assay with HCT-15 colon was over 100 µM; with T-47D breast, over 100 µM; with NCI/ADR-RES ovarian it was over 100 µM; in the assay with MDA-MB-231 breast it was 54 µM; in the assay on BT-549 breast, over 100 µM. Further, the TGI with HCT-15 colon, in the assay with T-47D breast, in the assay on NCI/ADR-RES ovarian, in the assay on MDA-MB-231 breast and with BT-549 breast was over 100 µM throughout.

Regarding `O=C(Nc1ccc(OS(=O)(=O)c2ccccc2)cc1)C12CC3CC(CC(C3)C1)C2`, the GI50 in the assay with HCT-15 colon was 0.997 µM; with T-47D breast, 3.57 µM; in the assay with NCI/ADR-RES ovarian it was 5.75 µM; with MDA-MB-231 breast, 3.79 µM; with BT-549 breast it was 3.24 µM. Also, the TGI with HCT-15 colon, in the assay with T-47D breast, in the assay on NCI/ADR-RES ovarian, in the assay on MDA-MB-231 breast and in the assay on BT-549 breast was over 100 µM throughout.

Consider `Cc1ccc(C(SCC(N)C(=O)O)(c2ccccc2)c2ccc(C)cc2)cc1` (stereo not given), for which the GI50 was 0.367 µM in the assay with HCT-15 colon; 0.333 µM in the assay with T-47D breast; 1.14 µM in the assay with NCI/ADR-RES ovarian; 0.468 µM in the assay with MDA-MB-231 breast; 0.247 µM with BT-549 breast. For the same compound, the TGI with HCT-15 colon is 23.9 µM; in the assay on T-47D breast, 16.9 µM; in the assay with NCI/ADR-RES ovarian, 11.6 µM; in the assay with MDA-MB-231 breast it was 16.1 µM; in the assay with BT-549 breast, 21.9 µM.

For the compound `C[As](C)SC1OC(CO)C(O)C1O` (stereo not given), the GI50 is 0.238 µM in the assay on HCT-15 colon; 3.21 µM in the assay on T-47D breast; 0.825 µM with NCI/ADR-RES ovarian; 0.725 µM in the assay with MDA-MB-231 breast; 0.628 µM in the assay on BT-549 breast. The TGI in the assay with HCT-15 colon is 1.12 µM; in the assay on T-47D breast, over 100 µM; with NCI/ADR-RES ovarian, 5.75 µM; in the assay on MDA-MB-231 breast, 3.69 µM; in the assay with BT-549 breast, 3.21 µM.

With `C=C(F)C(=O)N1CCN(c2nc(OC[C@@H]3CCCN3C)nc3c2CCN(c2cccc4cccc(Cl)c24)C3)C[C@@H]1CC#N`, the GI50 is 0.56 µM in the assay with HCT-15 colon; 1.24 µM in the assay on T-47D breast; 0.601 µM with NCI/ADR-RES ovarian; 0.752 µM in the assay with MDA-MB-231 breast; 2.19 µM in the assay on BT-549 breast. For the same compound, the TGI in the assay on HCT-15 colon is 2.06 µM; in the assay with T-47D breast, 3.07 µM; in the assay with NCI/ADR-RES ovarian, 3.19 µM; in the assay on MDA-MB-231 breast, 2.23 µM; in the assay on BT-549 breast, 4.57 µM.

Consider `Cc1ccc(Cl)cc1Nc1nc(C(F)(F)F)ccc1C(=O)N1CCN(c2ccc(F)cc2)CC1`, for which the GI50 in the assay with HCT-15 colon is 13.2 µM; in the assay on T-47D breast, 6.25 µM; with NCI/ADR-RES ovarian, 13.3 µM; in the assay on MDA-MB-231 breast, 10.3 µM; in the assay with BT-549 breast, 12.8 µM. Also, the TGI in the assay on HCT-15 colon stood at 29.3 µM; with T-47D breast, 42.6 µM; in the assay on NCI/ADR-RES ovarian it was 36.7 µM; in the assay on MDA-MB-231 breast, 24.4 µM; with BT-549 breast, 26.3 µM.

As to `CCCCc1c(OC)cc(O)c2c1C(=O)c1[nH]c(C(=O)O)c(O)c(=O)c1C2=O`, the TGI is over 100 µM in the assay with HCT-15 colon; over 100 µM with T-47D breast; 93.7 µM with NCI/ADR-RES ovarian; 3.49 µM in the assay with MDA-MB-231 breast; 52.8 µM with BT-549 breast.

For the compound `COc1ccc(C(=O)c2cc(OC)c(C)c(OC)c2)cc1OC(=O)CCl`, the GI50 in the assay on HCT-15 colon was 0.0697 µM; with T-47D breast, 3.26 µM; in the assay with NCI/ADR-RES ovarian, 0.181 µM; in the assay on MDA-MB-231 breast, 0.353 µM; with BT-549 breast, 0.395 µM. Moreover, the TGI was 27.2 µM in the assay with HCT-15 colon; over 79 µM in the assay with T-47D breast; 4.38 µM with NCI/ADR-RES ovarian; 18.6 µM in the assay on MDA-MB-231 breast; 10.3 µM in the assay on BT-549 breast.

Consider `COc1cc(C(=O)c2cc(C)c3[nH]c4ccc(Cl)cc4c3c2C)cc(OC)c1OC`, for which the GI50 in the assay on HCT-15 colon is 0.0355 µM; in the assay with T-47D breast it was 1.84 µM; with NCI/ADR-RES ovarian it was 0.032 µM; with MDA-MB-231 breast, 0.0496 µM; in the assay on BT-549 breast, 0.0423 µM. In addition, the TGI in the assay on HCT-15 colon amounted to 4.25 µM; in the assay with T-47D breast, 39.3 µM; with NCI/ADR-RES ovarian it was 11.9 µM; with MDA-MB-231 breast it was 2.32 µM; with BT-549 breast, 4.55 µM.

On to `CC1OC2CC(=O)OC2C2=C1C(=O)c1c(O)cccc1C2=O` (stereo not given), for which the GI50 was 0.0314 µM in the assay with HCT-15 colon; 0.106 µM in the assay on T-47D breast; 0.0892 µM in the assay on NCI/ADR-RES ovarian; 0.0684 µM with MDA-MB-231 breast; 0.177 µM in the assay with BT-549 breast. In addition, the TGI in the assay with HCT-15 colon turned out to be 0.15 µM; in the assay with T-47D breast, 0.351 µM; in the assay on NCI/ADR-RES ovarian, 0.646 µM; with MDA-MB-231 breast, 0.334 µM; in the assay on BT-549 breast, 0.368 µM.

`O=C(CCCn1ccnc1[N+](=O)[O-])NCCn1cncc1[N+](=O)[O-]`: the TGI in the assay with HCT-15 colon, in the assay with T-47D breast, in the assay on NCI/ADR-RES ovarian, in the assay with MDA-MB-231 breast and in the assay on BT-549 breast was over 100 µM throughout.
